Kinase still bound, per cent of control data for 4 compounds are collected here from the kinase profiling compilation of Christmann-Franck et al. (2016).

Among the targets are PLK2 (human) (UniProt Q9NYY3); CRK2 (P.falciparum) (UniProt P61075); DSTYK (human) (UniProt Q6XUX3); IRAK4 (human) (UniProt Q9NWZ3); MAP3K1 (human) (UniProt Q13233); GRK7 (human) (UniProt Q8WTQ7); PI4KB (human) (UniProt Q9UBF8); YSK4 (human) (UniProt Q56UN5); ICK (human) (UniProt Q9UPZ9); LRRK2 (human) (UniProt Q5S007); SIK3 (human) (UniProt Q9Y2K2); ACVR2B (human) (UniProt Q13705); NEK4 (human) (UniProt P51957); MAP3K2 (human) (UniProt Q9Y2U5); MAP3K15 (human) (UniProt Q6ZN16); VRK2 (human) (UniProt Q86Y07); ERBB3 (human) (UniProt P21860); TBK1 (human) (UniProt Q9UHD2); STK32A (human) (UniProt Q8WU08); MAP3K13 (human) (UniProt O43283); DYRK2 (human) (UniProt Q92630); PRPF4B (human) (UniProt Q13523); ERN1 (human) (UniProt O75460); MATK (human) (UniProt P42679); PRKG2 (human) (UniProt Q13237); MAP2K5 (human) (UniProt Q13163); CDK4 CCND3 (human) (UniProt P11802+P30281); CDK13 (human) (UniProt Q14004); RPS6KB1 (human) (UniProt P23443); ABL1 (human) (UniProt P00519).

Common to all, as to experiment: KINOMEscan competition binding
Settings in all cases: compound 10.0 µM

The test system of experiment [1] is PIK3CA (human), P42336 [M1043I].
The test system of experiment [2] is EGFR (human), P00533 [T790M].
Experiment [3] deals with PIK3CA (human), P42336 [I800L].
The test system of experiment [4] is FLT3 (human), P36888 [R834Q].
In experiment [5] the test system is PIK3CA (human), P42336 [C420R].
PIK3CA (human), P42336 [C420R], sequence (P42336 whole entry C420R, looked up): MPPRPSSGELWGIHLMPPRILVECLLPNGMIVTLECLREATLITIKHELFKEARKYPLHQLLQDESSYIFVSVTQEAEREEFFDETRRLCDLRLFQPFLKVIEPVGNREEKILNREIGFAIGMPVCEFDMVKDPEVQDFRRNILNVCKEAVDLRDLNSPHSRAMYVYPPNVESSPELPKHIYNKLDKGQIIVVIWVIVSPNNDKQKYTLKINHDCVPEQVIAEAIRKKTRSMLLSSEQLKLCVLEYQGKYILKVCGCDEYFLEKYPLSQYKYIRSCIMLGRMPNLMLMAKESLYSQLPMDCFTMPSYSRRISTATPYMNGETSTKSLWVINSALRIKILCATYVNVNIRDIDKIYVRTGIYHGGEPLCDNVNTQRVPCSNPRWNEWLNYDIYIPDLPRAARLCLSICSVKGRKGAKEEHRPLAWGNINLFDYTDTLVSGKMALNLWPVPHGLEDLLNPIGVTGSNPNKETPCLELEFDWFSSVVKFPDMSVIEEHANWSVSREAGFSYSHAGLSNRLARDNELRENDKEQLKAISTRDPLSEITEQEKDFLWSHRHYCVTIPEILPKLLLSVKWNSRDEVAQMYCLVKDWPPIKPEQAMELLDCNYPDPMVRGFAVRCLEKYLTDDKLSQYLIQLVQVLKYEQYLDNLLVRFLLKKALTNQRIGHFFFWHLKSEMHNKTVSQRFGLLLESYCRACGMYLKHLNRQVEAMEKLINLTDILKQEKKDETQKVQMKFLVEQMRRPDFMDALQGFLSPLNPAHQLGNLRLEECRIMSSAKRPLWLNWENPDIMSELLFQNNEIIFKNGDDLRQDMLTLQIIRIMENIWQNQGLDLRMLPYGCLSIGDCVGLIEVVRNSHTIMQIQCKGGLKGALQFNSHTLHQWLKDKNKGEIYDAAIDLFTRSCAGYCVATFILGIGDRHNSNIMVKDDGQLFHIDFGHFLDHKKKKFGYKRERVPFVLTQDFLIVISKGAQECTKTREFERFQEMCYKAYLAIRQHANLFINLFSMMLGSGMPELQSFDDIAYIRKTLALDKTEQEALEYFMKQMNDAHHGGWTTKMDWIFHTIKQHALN
In experiment [6] the test system is KIT (human), P10721 [A829P].
In experiment [7] the test system is MET (human), P08581 [M1250T].
Experiment [8] has as its system KIT (human), P10721 [L576P].
Experiment [9] concerns PIK3CA (human), P42336 [E545A].
The test system of experiment [10] is PIK3CA (human), P42336 [Q546K].
Experiment [11] has as its system MET (human), P08581 [Y1235D].
The test system of experiment [12] is EGFR (human), P00533 [T790M/L858R].

MATK (human), sequence (P42679 whole entry, looked up): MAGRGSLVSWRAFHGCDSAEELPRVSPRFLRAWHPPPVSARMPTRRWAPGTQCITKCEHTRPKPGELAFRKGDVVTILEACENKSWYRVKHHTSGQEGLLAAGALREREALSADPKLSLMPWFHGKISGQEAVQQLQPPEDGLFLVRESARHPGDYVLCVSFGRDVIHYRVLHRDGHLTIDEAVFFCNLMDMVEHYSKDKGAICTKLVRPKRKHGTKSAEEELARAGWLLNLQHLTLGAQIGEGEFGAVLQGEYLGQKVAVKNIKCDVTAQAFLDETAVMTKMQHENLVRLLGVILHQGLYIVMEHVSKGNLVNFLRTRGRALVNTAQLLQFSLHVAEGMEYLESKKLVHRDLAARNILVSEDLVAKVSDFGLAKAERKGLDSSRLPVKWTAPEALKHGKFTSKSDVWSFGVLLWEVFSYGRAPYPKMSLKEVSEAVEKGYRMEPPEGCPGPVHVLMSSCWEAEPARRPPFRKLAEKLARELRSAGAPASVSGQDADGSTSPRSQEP
STK32A (human), sequence (Q8WU08 whole entry, looked up): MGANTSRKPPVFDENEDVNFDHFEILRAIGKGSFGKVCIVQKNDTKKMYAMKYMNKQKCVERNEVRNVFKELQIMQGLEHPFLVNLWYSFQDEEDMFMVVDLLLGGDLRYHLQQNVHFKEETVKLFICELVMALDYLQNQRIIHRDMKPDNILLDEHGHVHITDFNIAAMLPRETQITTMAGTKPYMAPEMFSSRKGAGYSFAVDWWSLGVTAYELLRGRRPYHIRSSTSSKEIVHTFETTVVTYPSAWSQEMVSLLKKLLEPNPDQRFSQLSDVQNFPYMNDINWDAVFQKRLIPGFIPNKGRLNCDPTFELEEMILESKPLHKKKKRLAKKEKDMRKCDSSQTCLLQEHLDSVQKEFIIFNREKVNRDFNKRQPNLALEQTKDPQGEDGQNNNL
TBK1 (human), sequence (Q9UHD2 whole entry, looked up): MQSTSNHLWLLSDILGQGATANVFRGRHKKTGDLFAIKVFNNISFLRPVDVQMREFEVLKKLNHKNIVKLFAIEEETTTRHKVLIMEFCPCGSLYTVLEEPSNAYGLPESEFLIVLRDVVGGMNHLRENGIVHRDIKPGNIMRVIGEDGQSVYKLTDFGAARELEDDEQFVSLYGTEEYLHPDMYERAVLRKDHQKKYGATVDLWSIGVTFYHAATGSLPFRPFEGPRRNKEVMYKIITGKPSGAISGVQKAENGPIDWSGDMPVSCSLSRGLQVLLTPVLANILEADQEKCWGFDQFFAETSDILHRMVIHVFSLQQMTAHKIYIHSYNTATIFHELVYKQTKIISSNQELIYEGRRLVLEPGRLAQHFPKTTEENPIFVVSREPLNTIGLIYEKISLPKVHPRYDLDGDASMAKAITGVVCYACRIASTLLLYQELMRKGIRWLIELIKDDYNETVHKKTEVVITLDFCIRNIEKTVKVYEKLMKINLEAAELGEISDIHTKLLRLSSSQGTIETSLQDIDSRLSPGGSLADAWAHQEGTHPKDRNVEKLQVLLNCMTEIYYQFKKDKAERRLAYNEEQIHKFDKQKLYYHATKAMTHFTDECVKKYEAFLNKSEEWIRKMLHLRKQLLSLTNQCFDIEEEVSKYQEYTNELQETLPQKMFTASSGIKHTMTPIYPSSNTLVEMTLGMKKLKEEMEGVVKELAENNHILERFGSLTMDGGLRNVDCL
PRPF4B (human), sequence (Q13523 whole entry, looked up): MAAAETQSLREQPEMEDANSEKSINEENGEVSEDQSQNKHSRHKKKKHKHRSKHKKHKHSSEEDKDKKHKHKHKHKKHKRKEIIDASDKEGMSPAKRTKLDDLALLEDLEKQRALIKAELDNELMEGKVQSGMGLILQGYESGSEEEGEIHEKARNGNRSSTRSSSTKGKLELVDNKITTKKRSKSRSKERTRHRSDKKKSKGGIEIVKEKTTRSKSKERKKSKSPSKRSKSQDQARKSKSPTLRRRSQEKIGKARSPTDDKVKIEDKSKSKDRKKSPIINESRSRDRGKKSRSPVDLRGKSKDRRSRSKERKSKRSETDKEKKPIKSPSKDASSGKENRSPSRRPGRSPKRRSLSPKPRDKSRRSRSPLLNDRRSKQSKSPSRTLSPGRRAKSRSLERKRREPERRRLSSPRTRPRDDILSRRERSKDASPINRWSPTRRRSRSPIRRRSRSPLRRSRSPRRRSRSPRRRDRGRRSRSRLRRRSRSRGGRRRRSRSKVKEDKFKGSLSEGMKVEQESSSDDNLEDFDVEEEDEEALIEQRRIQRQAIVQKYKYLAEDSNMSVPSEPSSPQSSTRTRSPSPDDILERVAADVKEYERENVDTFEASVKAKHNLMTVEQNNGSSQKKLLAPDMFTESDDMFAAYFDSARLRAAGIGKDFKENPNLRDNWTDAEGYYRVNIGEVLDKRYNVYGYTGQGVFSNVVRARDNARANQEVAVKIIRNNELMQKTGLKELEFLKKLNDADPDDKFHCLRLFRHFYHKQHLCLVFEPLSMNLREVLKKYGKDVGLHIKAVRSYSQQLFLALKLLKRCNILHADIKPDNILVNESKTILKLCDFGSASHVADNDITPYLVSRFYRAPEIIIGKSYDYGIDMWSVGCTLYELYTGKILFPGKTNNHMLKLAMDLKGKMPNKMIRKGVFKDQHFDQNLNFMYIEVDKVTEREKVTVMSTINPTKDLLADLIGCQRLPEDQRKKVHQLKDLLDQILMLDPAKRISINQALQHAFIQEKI
MAP2K5 (human), sequence (Q13163 whole entry, looked up): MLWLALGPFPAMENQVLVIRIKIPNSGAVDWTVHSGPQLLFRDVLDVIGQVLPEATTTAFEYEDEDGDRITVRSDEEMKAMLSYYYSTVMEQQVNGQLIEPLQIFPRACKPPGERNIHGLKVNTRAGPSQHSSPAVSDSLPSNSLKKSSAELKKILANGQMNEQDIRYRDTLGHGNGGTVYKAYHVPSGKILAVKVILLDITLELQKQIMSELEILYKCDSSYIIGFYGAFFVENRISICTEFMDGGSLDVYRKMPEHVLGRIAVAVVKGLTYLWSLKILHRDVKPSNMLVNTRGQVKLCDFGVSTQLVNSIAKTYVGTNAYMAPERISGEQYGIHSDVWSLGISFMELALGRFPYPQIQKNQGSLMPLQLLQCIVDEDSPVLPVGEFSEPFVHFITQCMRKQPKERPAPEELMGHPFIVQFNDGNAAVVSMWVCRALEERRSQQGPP
CRK2 (P.falciparum), sequence (P61075 whole entry, looked up): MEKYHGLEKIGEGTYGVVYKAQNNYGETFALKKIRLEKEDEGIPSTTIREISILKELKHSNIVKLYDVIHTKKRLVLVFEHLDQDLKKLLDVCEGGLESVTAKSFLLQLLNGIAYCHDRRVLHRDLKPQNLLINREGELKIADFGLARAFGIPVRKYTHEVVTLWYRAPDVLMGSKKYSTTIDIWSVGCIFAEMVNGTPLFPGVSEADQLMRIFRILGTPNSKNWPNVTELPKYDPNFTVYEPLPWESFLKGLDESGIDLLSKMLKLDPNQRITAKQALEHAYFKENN
DYRK2 (human), sequence (Q92630 whole entry, looked up): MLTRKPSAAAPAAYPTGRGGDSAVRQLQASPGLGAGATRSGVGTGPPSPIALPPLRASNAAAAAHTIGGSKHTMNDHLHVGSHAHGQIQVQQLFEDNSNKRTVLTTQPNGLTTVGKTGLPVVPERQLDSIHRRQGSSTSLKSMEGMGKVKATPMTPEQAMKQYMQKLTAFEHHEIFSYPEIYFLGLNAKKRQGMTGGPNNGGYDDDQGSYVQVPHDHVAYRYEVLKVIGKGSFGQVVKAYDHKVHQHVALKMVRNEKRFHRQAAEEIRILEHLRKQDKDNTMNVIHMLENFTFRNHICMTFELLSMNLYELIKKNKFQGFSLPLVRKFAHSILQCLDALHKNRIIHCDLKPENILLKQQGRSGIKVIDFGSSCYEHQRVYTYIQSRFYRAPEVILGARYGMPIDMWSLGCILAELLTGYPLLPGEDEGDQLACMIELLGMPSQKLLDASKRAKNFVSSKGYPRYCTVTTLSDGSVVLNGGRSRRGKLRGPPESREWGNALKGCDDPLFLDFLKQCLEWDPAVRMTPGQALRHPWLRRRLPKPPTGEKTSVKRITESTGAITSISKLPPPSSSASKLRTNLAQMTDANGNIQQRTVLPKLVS

Consider `CCN1CCN(Cc2ccc(NC(=O)c3ccc(C)c(/C=C/c4cnc(Nc5cc(N6CCNCC6)nc(C)n5)cn4)c3)cc2C(F)(F)F)CC1`, for which the kinase still bound, per cent of control at PLK2 (human) is 69%; at CRK2 (P.falciparum), 55%; on DSTYK (human) it was 69%; in experiment [1], 73%; at IRAK4 (human) it was 77%; on MAP3K1 (human), 75%. The kinase still bound, per cent of control at GRK7 (human) amounted to 73%; on PI4KB (human), 63%; on YSK4 (human) it was 0%; in experiment [2], 9.4%; on ICK (human), 71%; in experiment [3] it was 94%. The kinase still bound, per cent of control was determined as 63% at LRRK2 (human); 100% on SIK3 (human); 92% at ACVR2B (human); 28% on NEK4 (human); 8.6% in [4]; 0.4% on MAP3K2 (human). The kinase still bound, per cent of control in experiment [5] is 80%; in experiment [6], 33%; at MAP3K15 (human), 100%; on VRK2 (human), 62%; in experiment [7], 89%; in [8], 0.2%. The kinase still bound, per cent of control on ERBB3 (human) came out at 100%; in experiment [9] it was 100%; on TBK1 (human), 96%; on STK32A (human), 100%; at MAP3K13 (human), 6.6%; on DYRK2 (human) it was 74%. The kinase still bound, per cent of control on PRPF4B (human) came out at 85%; on ERN1 (human), 71%; in experiment [10] it was 100%; in [11], 93%; in [12] it was 65%; at MATK (human) it was 100%. For the same compound, the kinase still bound, per cent of control at PRKG2 (human) worked out at 88%; at MAP2K5 (human), 0.1%; at CDK4 CCND3 (human) it was 64%; on CDK13 (human), 46%; on RPS6KB1 (human), 6.2%.

For the compound `CCN1CCN(Cc2ccc(NC(=O)c3ccc(C)c(Oc4ccnc5[nH]ccc45)c3)cc2C(F)(F)F)CC1`, the kinase still bound, per cent of control at ABL1 (human) stood at 0.1%.

On ABL1 (human), `COc1cc(N2CCC(N3CCN(C)CC3)CC2)ccc1Nc1ncc(Cl)c(Nc2ccccc2S(=O)(=O)C(C)C)n1` registered a kinase still bound, per cent of control of 7.3%.

`CCOc1cc(N2CCC(N3CCCCC3)CC2)ccc1Nc1nc(Nc2ccccc2S(=O)(=O)C(C)C)c2cn[nH]c2n1`: the kinase still bound, per cent of control at PLK2 (human) turned out to be 100%; on CRK2 (P.falciparum), 100%; on DSTYK (human) it was 2.8%; in experiment [1], 100%; at IRAK4 (human), 87%; at MAP3K1 (human) it was 82%. Besides, the kinase still bound, per cent of control at GRK7 (human) worked out at 100%; on PI4KB (human), 58%; at YSK4 (human), 100%; in [2], 0.25%; on ICK (human) it was 89%; in experiment [3] it was 100%. In addition, the kinase still bound, per cent of control at LRRK2 (human) is 0.65%; at SIK3 (human), 100%; on ACVR2B (human), 100%; on NEK4 (human), 74%; in experiment [4], 100%; on MAP3K2 (human), 28%. For the same compound, the kinase still bound, per cent of control came out at 100% in experiment [5]; 100% in experiment [6]; 77% at MAP3K15 (human); 68% at VRK2 (human); 100% in [7]; 67% in experiment [8]. The kinase still bound, per cent of control at ERBB3 (human) was determined as 55%; in experiment [9], 100%; at TBK1 (human), 100%; at STK32A (human) it was 32%; at MAP3K13 (human), 100%; on DYRK2 (human), 90%. The kinase still bound, per cent of control on PRPF4B (human) was found to be 100%; at ERN1 (human), 92%; in [10], 100%; in [11], 100%; in [12], 25%; at MATK (human), 100%. For the same compound, the kinase still bound, per cent of control at PRKG2 (human) came to 100%; at MAP2K5 (human), 55%; on CDK4 CCND3 (human) it was 100%; on CDK13 (human) it was 100%; at RPS6KB1 (human), 100%.
